We go through one compound from patent US5597715A, “7,42-Bis(O-demethyl)rapamycin” (SmithKline Beecham p.l.c., priority 1993, dated 1997).

The test system of the assay is Spleen cells. The experiment in a line: Mitogenesis Assay for Immunosuppressive Activity (Concanavalin A, 3H-thymidine). In kind it is cell-based, BDF1 female mice. The following applies: Mus musculus; Concanavalin A 5 μg/ml, 72 hours, 3H-thymidine last 18 hours. As to the method: Spleen cells for BDF1 female mice were established in RPMI with 10% fetal calf serum at 5×10^6 /mL. One hundred […] of this suspension (5×10^5 cells) were dispensed into 96-well round-bottomed microtiter plates (Linbro, Flow Laboratories). Concanavalin A (5 μg/ml) was added as the mitogenic stimulus, and the final volume in the microtiter wells was adjusted to 200 μL with RPMI. Cell cultures were incubated for 72 hours at 37° C. in a 5% CO2 atmosphere and pulsed with 0,5 μCi ^3 H-thymidine (specific activity […]) for the last 18 hours of the 72 hours culture. The cells were harvested on an automated multiple sample harvester and cell-associated radioactivity counted in a Beckman liquid scintillation counter. The results were expressed as the mean values derived from quadruplicate measurements. Cell viability was determined by trypan blue exclusion after 72 hours of incubation. Compounds to be tested were added to the microtiter plates at the appropriate dilutions prior to the addition of cells.

The structures appear in SMILES notation.

For the compound `COC1C(=O)C(C)CC(C)C=CC=CC=C(C)C(O)CC2CCC(C)C(O)(O2)C(=O)C(=O)N2CCCCC2C(=O)OC(C(C)CC2CCC(O)C(O)C2)CC(=O)C(C)C=C(C)C1O` (stereo not shown) [7,42-Bis(O-demethyl)rapamycin], the IC50 – broadly, the concentration that gives 50% inhibition – lay within 0.01 to 0.13 µM.
